In assay [1] the target is GluN1/GluN2D (Rattus norvegicus, UniProt P35439+Q62645). Nature of the assay: Whole-cell voltage-clamp recordings, HEK cells, GluN1/GluN2D (agonist dependence). The class given is cell-based. Particulars: for Kd: from kON and kOFF. From the text: (§1) We previously described the actions of the GluN2C/GluN2D-preferring negative allosteric modulator DQP-1105 as dependent on glutamate (but not glycine) binding, in that DQP-1105 affinity increases after GluN1/GluN2D NMDARs bind glutamate.[32] […] The concentration-dependent relaxation is indicative of an agonist-induced increase in potency that leads to re-equilibration of the inhibitor after agonist binding induces an increase in inhibitor affinity. We investigated the glutamate dependence of compound 2i (GluN1/GluN2D, Figure 4; GluN1/GluN2C, Figure S2), DQP-1105 (Figure S1), and compound (S)-2a (DQP-69;[33]Figure S3) using the same protocols.
(§2) We preincubated cells with glycine and the inhibitor 2i (DQP-997-74) and compared inhibitor potency during the peak and steady-state current responses to glutamate application. […] To investigate the time course of 2i inhibition, we fitted the relaxation of the current response with a single exponential function. If the current response time course reflects 2i binding, then the reciprocal of τinhibition should be linearly related to its concentration, with the slope equal to kON and intercept equal to kOFF. […] The deactivation of GluN1/GluN2D receptors (5.3 ± 0.2 s) was slowed by the presence of compound 2i when applied at concentrations of 0.1 μM (7.3 ± 0.3 s; p = 0.017) and 0.3 μM (10.5 ± 1.0 s; p = 0.002) but not at 0.03 μM (5.6 ± 0.3 s; p = 0.518; Figure 4E). […] This phenomenon was previously discovered for QNZ-46, a glutamate-dependent GluN2C/2D-selective inhibitor with a different structural core.[42] As proposed in that study, the prolonged deactivation may indicate that 2i slows a conformational change necessary for glutamate unbinding or 2i may need to unbind before glutamate can unbind.
(§3) In addition, we evaluated how glutamate dependence affects inhibition of responses to brief agonist applications similar to phasic glutamate release that occurs at synapses. To do so, we preincubated cells expressing GluN1/GluN2D receptors with the inhibitor 2i and then applied trains of five brief pulses of NMDA (which dissociates more rapidly than glutamate) and glycine from a pressurized micropipette to mimic repetitive synaptic transmission (Figure 4F). We measured the peak amplitude and compared the concentration–response curves for the inhibition of the first and last response (Figure 4G). The initial train of pulses in the absence of drug controls for systematic errors such as internalization of receptors.
(§4) To further evaluate whether 2i followed the law of mass action, we coapplied different concentrations of 2i with glutamate during the steady-state glutamate and glycine responses of GluN1/GluN2D receptors expressed in HEK cells (Figure 4H). […] We also fitted the onset and offset time course of the inhibition produced by compound 2i with a single exponential function (Figure 4J).
(§5) HEK293 cells (HEK, ATCC CRL-1573) were plated on glass coverslips pretreated with 0.1 mg/mL poly-D-lysine and cultured in Dulbecco’s modified Eagle medium (DMEM) plus Glutamax (GIBCO 10569-10) supplemented with 10% fetal bovine serum, 10 U/mL of penicillin, and 10 μg/mL of streptomycin at 37 °C and 5% CO2. The cells were transiently transfected with cDNA encoding rat GluN1, GluN2D, and eGFP at a ratio of 1:1:5 by using the calcium phosphate precipitation method.[48] After 24–48 h following the transfection, the cells were perfused with external recording solution that contained (in mM) 3 KCl, 150 NaCl, 0.01 EDTA, 1.0 CaCl2, 10 HEPES, and 22 D-mannitol (the pH was adjusted to 7.4 with NaOH). The patch electrodes (resistance 3–5 MΩ) were prepared from thin-walled glass micropipettes (TW150F-4, World Precision Instruments, Sarasota, FL) by a dual-stage glass micropipette puller (PC-10, Narishige, Tokyo, Japan) and filled with internal solution containing (in mM) 110 D-gluconate, 110 CsOH, 30 CsCl, 5 HEPES, 4 NaCl, 0.5 CaCl2, 2 MgCl2, 5 BAPTA, 2 NaATP, and 0.3 NaGTP. […]

In assay [2] the target is GluN1/GluN2D (Rattus norvegicus, UniProt Q62645). Described as above. The class given is cell-based.
Source text: as §1, §2, §3, §4, §5

Where [3] appears, read: HEK293, coapplication with glutamate.
The mark [4] stands for this setting: HEK293, inhibitor preapplied, linear regression of 1/τinhibition vs concentration.

Like-named read-outs stand apart in the source and are kept apart here.

GluN1/GluN2D (Rattus norvegicus, UniProt P35439+Q62645), sequence (Q62645 28-1323, other chains not shown): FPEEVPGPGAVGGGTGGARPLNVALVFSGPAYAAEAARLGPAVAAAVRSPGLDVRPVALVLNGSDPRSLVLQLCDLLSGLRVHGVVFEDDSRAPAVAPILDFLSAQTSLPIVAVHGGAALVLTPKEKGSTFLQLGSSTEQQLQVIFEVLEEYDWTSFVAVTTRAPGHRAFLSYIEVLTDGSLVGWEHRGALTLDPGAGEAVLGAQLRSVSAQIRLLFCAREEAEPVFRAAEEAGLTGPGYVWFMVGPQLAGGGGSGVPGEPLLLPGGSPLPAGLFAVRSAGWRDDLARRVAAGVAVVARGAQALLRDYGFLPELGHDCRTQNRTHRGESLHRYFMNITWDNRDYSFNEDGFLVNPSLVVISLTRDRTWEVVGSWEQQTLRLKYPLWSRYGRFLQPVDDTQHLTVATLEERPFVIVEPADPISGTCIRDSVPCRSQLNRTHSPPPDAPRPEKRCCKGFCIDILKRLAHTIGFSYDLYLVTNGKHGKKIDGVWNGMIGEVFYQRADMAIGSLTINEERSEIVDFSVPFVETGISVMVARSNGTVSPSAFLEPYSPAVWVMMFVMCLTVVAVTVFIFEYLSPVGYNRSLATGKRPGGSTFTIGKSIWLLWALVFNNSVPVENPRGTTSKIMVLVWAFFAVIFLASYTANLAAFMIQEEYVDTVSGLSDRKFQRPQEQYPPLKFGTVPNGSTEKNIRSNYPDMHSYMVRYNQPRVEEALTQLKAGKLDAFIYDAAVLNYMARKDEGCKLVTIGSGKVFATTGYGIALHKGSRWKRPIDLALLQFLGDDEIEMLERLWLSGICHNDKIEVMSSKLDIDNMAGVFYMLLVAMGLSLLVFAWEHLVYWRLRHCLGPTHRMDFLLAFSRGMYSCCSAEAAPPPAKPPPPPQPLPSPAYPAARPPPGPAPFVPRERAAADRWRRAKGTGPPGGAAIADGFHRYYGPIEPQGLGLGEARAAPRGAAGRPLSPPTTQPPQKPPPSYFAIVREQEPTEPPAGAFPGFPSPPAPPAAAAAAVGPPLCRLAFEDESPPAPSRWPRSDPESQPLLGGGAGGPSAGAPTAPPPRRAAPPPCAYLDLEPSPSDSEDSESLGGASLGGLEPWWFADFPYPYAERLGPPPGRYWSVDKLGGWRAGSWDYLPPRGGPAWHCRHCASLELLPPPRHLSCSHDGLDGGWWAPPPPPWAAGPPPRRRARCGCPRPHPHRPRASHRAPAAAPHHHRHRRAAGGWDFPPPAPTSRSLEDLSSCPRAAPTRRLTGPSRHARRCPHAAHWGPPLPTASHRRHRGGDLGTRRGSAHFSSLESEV
GluN1/GluN2D (Rattus norvegicus, UniProt Q62645), sequence (Q62645 28-1323, other chains not shown): as above

As for `O=C(O)CC(F)(F)C(=O)N1N=C(c2c(-c3ccc(Cl)cc3)c3ccccc3[nH]c2=O)CC1c1ccc(Cl)cc1` (stereo not drawn) [2i], the koff – broadly, the first-order rate constant of dissociation – worked out at 0.05 s⁻¹ on GluN1/GluN2D [1] (setting [3]) and 0.17 s⁻¹ at GluN1/GluN2D [1] (setting [4]). Besides, the on-rate constant (kon) – broadly, the rate constant with which the complex forms – came out at 210000 M⁻¹ s⁻¹ on GluN1/GluN2D [1] (setting [3]) and 400000 M⁻¹ s⁻¹ on GluN1/GluN2D [1] (setting [4]). Moreover, the equilibrium dissociation constant (Kd) (commonly a measure of binding affinity in units of concentration) on GluN1/GluN2D [1] (coapplication with glutamate) was 240 nM; at GluN1/GluN2D [1] (inhibitor preapplied), 430 nM. For the same compound, the IC50 (usually the concentration that inhibits the measured activity by half) on GluN1/GluN2D [1] (compound coapplied with glutamate during steady-state response, read-out: IC50 steady-state inhibition, coapplication) turned out to be 100 nM; on GluN1/GluN2D [1] (fifth of 5 brief NMDA (500 μM)/glycine (250 μM) pulses at 1 s intervals, read-out: IC50 pulse 5 (95% CI)), 400 nM; at GluN1/GluN2D [1] (first of 5 brief NMDA (500 μM)/glycine (250 μM) pulses at 1 s intervals, read-out: IC50 pulse 1 (95% CI)), 750 nM; on GluN1/GluN2D [1] (peak current response to glutamate, inhibitor preapplied, read-out: IC50 peak (95% CI)) it was 230 nM; at GluN1/GluN2D [1] (steady-state current response to glutamate, inhibitor preapplied, read-out: IC50 steady-state (95% CI)), 80 nM. Besides, the “τdeactivation following glutamate removal” value was found to be 5.6 ± 0.3 s on GluN1/GluN2D [2] (0.03 μM compound, mean ± SEM); 7.3 ± 0.3 s at GluN1/GluN2D [2] (0.1 μM compound, mean ± SEM); 10.5 ± 1.0 s at GluN1/GluN2D [2] (0.3 μM compound, mean ± SEM). For the same compound, at GluN1/GluN2D [2] (coapplication with glutamate), the Hill slope (usually the slope factor of the fitted curve) amounted to 0.93. The “fold-change in IC50 for the peak and steady-state current responses” value on GluN1/GluN2D [2] (mean ± SEM, compared by ANOVA) was determined as 3.0 ± 0.3. Moreover, the “IC50 fold higher during peak compared to steady-state” value on GluN1/GluN2D [2] (ratio of IC50 values) is reported as 3 fold. Moreover, the “IC50 fold higher at first pulse compared to fifth pulse” value at GluN1/GluN2D [2] (trains of brief agonist applications) amounted to 1.9 fold.

Source of the values: publication PMC10485906, “Development of a Dihydroquinoline–Pyrazoline GluN2C/2D-Selective Negative Allosteric Modulator of the N-Methyl-D-aspartate Receptor” (ACS Chemical Neuroscience, 2023).
